Test results published in US20120309796A1, “BENZOCYCLOHEPTENE ACETIC ACIDS” (priority 2011, published 2012).

Target: T1, thromboxane A2 receptor (TP) (Homo sapiens, UniProt P21731)
T1 construct: using human platelets as the source of the receptor; from tissue; host or cells: human platelets (whole platelets, 5x10^7 per well)
T1 sequence (P21731 1-343): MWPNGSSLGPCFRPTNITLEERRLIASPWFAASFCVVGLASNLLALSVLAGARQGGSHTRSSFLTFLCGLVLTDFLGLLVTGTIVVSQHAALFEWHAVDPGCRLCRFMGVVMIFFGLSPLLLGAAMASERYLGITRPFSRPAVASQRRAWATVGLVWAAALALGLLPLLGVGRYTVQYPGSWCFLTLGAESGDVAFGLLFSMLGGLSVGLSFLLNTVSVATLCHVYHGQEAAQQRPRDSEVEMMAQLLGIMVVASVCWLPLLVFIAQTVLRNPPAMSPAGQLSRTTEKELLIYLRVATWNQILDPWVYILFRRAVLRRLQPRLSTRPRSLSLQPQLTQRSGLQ
Assay: Human Thromboxane A2 Receptor Binding Assay
Conditions: human platelets; 10 nM [3H]SQ29548; 1 hour, room temperature
Source text: The thromboxane A2 receptor (TP) plays a key role in hemostasis as its abnormality leads to bleeding disorders. To avoid the potential liability of bleeding disorders, the binding activity of certain compounds of the present invention against TP was monitored by a receptor binding assay using human platelets as the source of the receptor and [^3H]SQ29548 (generically named (5Z)-[5,6-^3H]-7-[(1S,2R,3R,4R)-3-[[2-[(phenylamino)carbonyl]hydrazinyl]methyl]-7-oxabicyclo[2.2.1]hept-2-yl]-5-heptenoic acid, from PerkinElmer Inc.) as the competing radioactive ligand.
The TP binding reactions (0.2 mL) were performed in 96-well plates at room temperature in PBS containing 5×10^7 platelets, 10 mM MgCl2, 0.06% BSA, 10 nM [^3H]SQ29548, and the test compound at various concentrations. […] The radioactivities bound to the platelets were determined using a microplate scintillation counter (TopCount® NXT, from PerkinElmer Inc.) after adding 50 μL of Microscint™ 20 scintillation fluid (from PerkinElmer Inc.) to each well of the filter plates. The radioactivity from non-specific binding was determined by replacing the compound with 10 μM of ramatroban (BAY-u3405, from Cayman Chemical Company) in the reaction mixtures. The radioactivity bound to the platelets in the absence of compound (total binding) was determined by replacing the compound with 0.25% of DMSO in the reaction mixture. […]

Compound | IC50
O=C(O)COc1cccc2c1CCCCC2NS(=O)(=O)c1cc(C(F)(F)F)cc(C(F)(F)F)c1 (single isomer, unassigned) [Example 46, [5-(3,5-Bis-trifluoromethyl-benzenesulfonylamino)-6,7,8,9-tetrahydro-5H-benzocyclohepten-1-yloxy]-acetic acid] | 3.61 µM
O=C(O)COc1cccc2c1CCCCC2NS(=O)(=O)c1cc(C(F)(F)F)cc(C(F)(F)F)c1 (centres unmarked) [Example 1, [5-(3,5-Bis-trifluoromethyl-benzenesulfonylamino)-6,7,8,9-tetrahydro-5H-benzocyclohepten-1-yloxy]-acetic acid] | 0.642 µM
